Test results: US20050070510A1, “Substituted tetracycline compounds as synergistic antifungal agents” (Paratek Pharmaceuticals, Inc., priority 2001, published 2005)

System: COS-1 cells
Experiment: In vitro mammalian cytotoxicity assay (Resazurin)

Row | Structure (SMILES) | In Vitro Cytotoxicity
1 | CCC(C)CNCc1cc(N(C)C)c2c(c1O)C(=O)C1=C(O)[C@]3(C#N)C(=O)C(C(N)=O)=C(O)[C@@H](N(C)C)[C@]3(N)C[C@]1(N)C2 (some centres unmarked) [SZ] | * (toxicities greater than >25 μg/ml are represented by *)
2 | CN(C)c1cc(CNCC(C)(C)C)c(O)c2c1C[C@@]1(N)C[C@@]3(N)[C@H](N(C)C)C(O)=C(C(N)=O)C(=O)[C@@]3(C#N)C(O)=C1C2=O [TK] | * (toxicities greater than >25 μg/ml are represented by *)
3 | CN(C)c1cc(C#CC(=O)O)c(O)c2c1C[C@@]1(N)C[C@@]3(N)[C@H](N(C)C)C(O)=C(C(N)=O)C(=O)[C@@]3(C#N)C(O)=C1C2=O [HZ] | * (toxicities greater than >25 μg/ml are represented by *)
4 | CSc1ccc(OC(=O)Nc2cc(N(C)C)c3c(c2O)C(=O)C2=C(O)[C@]4(C#N)C(=O)C(C(N)=O)=C(O)[C@@H](N(C)C)[C@]4(N)C[C@]2(N)C3)cc1 [KR] | * (toxicities greater than >25 μg/ml are represented by *)
5 | CN(C)[C@@H]1C(O)=C(C(N)=O)C(=O)[C@@]2(C#N)C(O)=C3C(=O)c4c(O)ccc(C#Cc5c(F)c(F)c(F)c(F)c5F)c4C[C@@]3(N)C[C@@]12N [FK] | ** (toxicities less than 25 μg/mL are represented by **)
6 | COc1ccc(C#Cc2cc(N(C)C)c3c(c2O)C(=O)C2=C(O)[C@]4(C#N)C(=O)C(C(N)=O)=C(O)[C@@H](N(C)C)[C@]4(N)C[C@]2(N)C3)cc1 [FE] | ** (toxicities less than 25 μg/mL are represented by **)
7 | CN(C)c1cc(NC(=O)Nc2cc(C(F)(F)F)cc(C(F)(F)F)c2)c(O)c2c1C[C@@]1(N)C[C@@]3(N)[C@H](N(C)C)C(O)=C(C(N)=O)C(=O)[C@@]3(C#N)C(O)=C1C2=O [IL] | ** (toxicities less than 25 μg/mL are represented by **)
8 | CCOP(=O)(OCC)C(Nc1ccccc1)c1ccc(-c2cc(N(C)C)c3c(c2O)C(=O)C2=C(O)[C@]4(C#N)C(=O)C(C(N)=O)=C(O)[C@@H](N(C)C)[C@]4(N)C[C@]2(N)C3)cc1 (some centres unmarked) [KP] | * (toxicities greater than >25 μg/ml are represented by *)
9 | COC(=O)/C=C/c1ccc2c(c1O)C(=O)C1=C(O)[C@]3(C#N)C(=O)C(C(N)=O)=C(O)[C@@H](N(C)C)[C@]3(N)[C@@H](O)[C@]1(N)C2N (some centres unmarked) [AW] | ** (toxicities less than 25 μg/mL are represented by **)
10 | CCCC#Cc1cc(N(C)C)c2c(c1O)C(=O)C1=C(O)[C@]3(C#N)C(=O)C(C(N)=O)=C(O)[C@@H](N(C)C)[C@]3(N)C[C@]1(N)C2 [KX] | ** (toxicities less than 25 μg/mL are represented by **)
11 | CN(C)[C@@H]1C(O)=C(C(N)=O)C(=O)[C@@]2(C#N)C(O)=C3C(=O)c4c(ccc(-c5cc6ccccc6[nH]5)c4O)[C@H](N)[C@@]3(N)[C@H]([S+](N)[O-])[C@@]12N (some centres unmarked) [BT] | ** (toxicities less than 25 μg/mL are represented by **)
12 | CCN(CC)c1ccc(-c2csc(Nc3ccc4c(c3O)C(=O)C3=C(O)[C@]5(C#N)C(=O)C(C(N)=O)=C(O)[C@@H](N(C)C)[C@]5(N)[C@@H](O)[C@]3(N)[C@H]4O)n2)cc1 [DU] | ** (toxicities less than 25 μg/mL are represented by **)
13 | CN(C)[C@@H]1C(O)=C(C(N)=O)C(=O)[C@@]2(C#N)C(O)=C3C(=O)c4c(O)ccc(C#CCCC#Cc5ccc(O)c6c5C[C@@]5(N)C[C@@]7(N)[C@H](N(C)C)C(O)=C(C(N)=O)C(=O)[C@@]7(C#N)C(O)=C5C6=O)c4C[C@@]3(N)C[C@@]12N [NC] | * (toxicities greater than >25 μg/ml are represented by *)
14 | CN(C)c1cc(NCc2ccc3c(c2)OCO3)c(O)c2c1C[C@@]1(N)C[C@@]3(N)[C@H](N(C)C)C(O)=C(C(N)=O)C(=O)[C@@]3(C#N)C(O)=C1C2=O [MK] | ** (toxicities less than 25 μg/mL are represented by **)
15 | CN(C)c1ccc(-c2ccc(O)c3c2C[C@@]2(N)C[C@@]4(N)[C@H](N(C)C)C(O)=C(C(N)=O)C(=O)[C@@]4(C#N)C(O)=C2C3=O)cc1 [EM] | ** (toxicities less than 25 μg/mL are represented by **)
16 | COc1ccc(CNCc2cccc(F)c2)cc1-c1ccc(O)c2c1C[C@@]1(N)C[C@@]3(N)[C@H](N(C)C)C(O)=C(C(N)=O)C(=O)[C@@]3(C#N)C(O)=C1C2=O [NG] | ** (toxicities less than 25 μg/mL are represented by **)
17 | CN(C)[C@@H]1C(O)=C(C(N)=O)C(=O)[C@@]2(C#N)C(O)=C3C(=O)c4c(O)ccc(-c5ccc(CN6CCOCC6)c6ccccc56)c4C[C@@]3(N)C[C@@]12N [ON] | ** (toxicities less than 25 μg/mL are represented by **)
18 | CN(C)c1cc(CNC(=O)Nc2ccc3c(c2)OCO3)c(O)c2c1C[C@@]1(N)C[C@@]3(N)[C@H](N(C)C)C(O)=C(C(N)=O)C(=O)[C@@]3(C#N)C(O)=C1C2=O [MZ] | * (toxicities greater than >25 μg/ml are represented by *)
19 | CN(C)c1ccc(-c2cc(N)c(O)c3c2C[C@@]2(N)C[C@@]4(N)C(N(C)C)C(O)=C(C(N)=O)C(=O)[C@@]4(C#N)C(O)=C2C3=O)cc1 (some centres unmarked) [RB] | * (toxicities greater than >25 μg/ml are represented by *)
20 | CN(C)[C@@H]1C(O)=C(C(N)=O)C(=O)[C@@]2(C#N)C(O)=C3C(=O)c4c(O)ccc(C#CC5(C#N)CCCCC5)c4C[C@@]3(N)C[C@@]12N [GA] | ** (toxicities less than 25 μg/mL are represented by **)
21 | CN(C)[C@@H]1C(O)=C(C(N)=O)C(=O)[C@@]2(C#N)C(O)=C3C(=O)c4c(O)ccc(I)c4C[C@@]3(N)C[C@@]12N [CU] | ** (toxicities less than 25 μg/mL are represented by **)

Row | Structure (SMILES) | In Vitro Cytotoxicity
22 | COCCOC(=O)NCc1cc(N(C)C)c2c(c1O)C(=O)C1=C(O)[C@]3(C#N)C(=O)C(C(N)=O)=C(O)[C@@H](N(C)C)[C@]3(N)C[C@]1(N)C2 [MT] | * (toxicities greater than >25 μg/ml are represented by *)
23 | CN(C)c1cc(NCc2cc(F)cc(F)c2)c(O)c2c1C[C@@]1(N)C[C@@]3(N)[C@H](N(C)C)C(O)=C(C(N)=O)C(=O)[C@@]3(C#N)C(O)=C1C2=O [TS] | ** (toxicities less than 25 μg/mL are represented by **)
24 | COc1ccc(-c2ccc3c(c2O)C(=O)C2=C(O)[C@]4(C#N)C(=O)C(C(N)=O)=C(O)[C@@H](N(C)C)[C@]4(N)[C@@H](O)[C@]2(N)[C@H]3N)cc1CN1CCCC1 [PQ] | * (toxicities greater than >25 μg/ml are represented by *)
25 | CN(C)[C@@H]1C(O)=C(C(N)=O)C(=O)[C@@]2(C#N)C(O)=C3C(=O)c4c(ccc(-c5ccc(C(=O)F)c6ccccc56)c4O)[C@H](N)[C@@]3(N)[C@H](O)[C@@]12N [PO] | ** (toxicities less than 25 μg/mL are represented by **)
26 | C=CCC(O)c1ccc(OC)c(-c2ccc(O)c3c2C[C@@]2(N)C[C@@]4(N)[C@H](N(C)C)C(O)=C(C(N)=O)C(=O)[C@@]4(C#N)C(O)=C2C3=O)c1 (some centres unmarked) [UE] | ** (toxicities less than 25 μg/mL are represented by **)
27 | COc1ccc(-c2ccc(O)c3c2C[C@@]2(N)C[C@@]4(N)[C@H](N(C)C)C(O)=C(C(N)=O)C(=O)[C@@]4(C#N)C(O)=C2C3=O)c(OC)c1 [OM] | ** (toxicities less than 25 μg/mL are represented by **)
28 | CN(C)c1cc(C#CCc2ccccc2)c(O)c2c1C[C@@]1(N)C[C@@]3(N)[C@H](N(C)C)C(O)=C(C(N)=O)C(=O)[C@@]3(C#N)C(O)=C1C2=O [KL] | ** (toxicities less than 25 μg/mL are represented by **)
29 | CC(C)S(=O)(=O)NCC#Cc1cc(N(C)C)c2c(c1O)C(=O)C1=C(O)[C@]3(C#N)C(=O)C(C(N)=O)=C(O)[C@@H](N(C)C)[C@]3(N)C[C@]1(N)C2 [JY] | * (toxicities greater than >25 μg/ml are represented by *)
30 | CCCCC#Cc1ccc(O)c2c1C[C@@]1(N)C[C@@]3(N)[C@H](N(C)C)C(O)=C(C(N)=O)C(=O)[C@@]3(C#N)C(O)=C1C2=O [IG] | ** (toxicities less than 25 μg/mL are represented by **)
31 | CN(C)c1cc(NCC2=CC=C(C(C)(C)C)CC2)c(O)c2c1C[C@@]1(N)C[C@@]3(N)[C@H](N(C)C)C(O)=C(C(N)=O)C(=O)[C@@]3(C#N)C(O)=C1C2=O [TX] | ** (toxicities less than 25 μg/mL are represented by **)
32 | CN(C)[C@@H]1C(O)=C(C(N)=O)C(=O)[C@@]2(C#N)C(O)=C3C(=O)c4c(O)c(C(C)(C)C)cc(-c5ccc6c(c5)OCO6)c4C[C@@]3(N)C[C@@]12N [NT] | ** (toxicities less than 25 μg/mL are represented by **)
33 | CN(C)[C@@H]1C(O)=C(C(N)=O)C(=O)[C@@]2(C#N)C(O)=C3C(=O)c4c(O)ccc(CCCNS(C)(=O)=O)c4C[C@@]3(N)C[C@@]12N [IV] | * (toxicities greater than >25 μg/ml are represented by *)
34 | CN(C)c1cc(NCc2ccccc2)c(O)c2c1C[C@@]1(N)C[C@@]3(N)[C@H](N(C)C)C(O)=C(C(N)=O)C(=O)[C@@]3(C#N)C(O)=C1C2=O [LO] | ** (toxicities less than 25 μg/mL are represented by **)
35 | Cc1ccc(OC(=O)NCc2cc(N(C)C)c3c(c2O)C(=O)C2=C(O)[C@]4(C#N)C(=O)C(C(N)=O)=C(O)[C@@H](N(C)C)[C@]4(N)C[C@]2(N)C3)cc1 [MU] | ** (toxicities less than 25 μg/mL are represented by **)
36 | CN(C)c1cc(-c2cccc(O)c2)c(O)c2c1C[C@@]1(N)C[C@@]3(N)[C@H](N(C)C)C(O)=C(C(N)=O)C(=O)[C@@]3(C#N)C(O)=C1C2=O [ES] | ** (toxicities less than 25 μg/mL are represented by **)
37 | CN(C)[C@@H]1C(O)=C(C(N)=O)C(=O)[C@@]2(C#N)C(O)=C3C(=O)c4c(ccc(CC(=O)c5ccno5)c4O)C[C@@]3(N)C[C@@]12N [RF] | * (toxicities greater than >25 μg/ml are represented by *)
38 | Cc1ccc(-c2ccc(O)c3c2C[C@@]2(N)C[C@@]4(N)[C@H](N(C)C)C(O)=C(C(N)=O)C(=O)[C@@]4(C#N)C(O)=C2C3=O)s1 [GJ] | ** (toxicities less than 25 μg/mL are represented by **)
39 | CN(C)c1cc(CNCC2CCCCC2)c(O)c2c1C[C@@]1(N)C[C@@]3(N)[C@H](N(C)C)C(O)=C(C(N)=O)C(=O)[C@@]3(C#N)C(O)=C1C2=O [TB] | * (toxicities greater than >25 μg/ml are represented by *)
40 | COc1ccc(CNCc2cccc(Cl)c2)cc1-c1ccc(O)c2c1C[C@@]1(N)C[C@@]3(N)[C@H](N(C)C)C(O)=C(C(N)=O)C(=O)[C@@]3(C#N)C(O)=C1C2=O [NJ] | ** (toxicities less than 25 μg/mL are represented by **)
41 | CN(C)[C@@H]1C(O)=C(C(N)=O)C(=O)[C@@]2(C#N)C(O)=C3C(=O)c4c(ccc(NC(=O)OCC5c6ccccc6-c6ccccc65)c4O)[C@H](N)[C@@]3(N)[C@H](O)[C@@]12N [BK] | ** (toxicities less than 25 μg/mL are represented by **)
